{"source": "BindingDB's records for doi:10.1016/j.chembiol.2011.05.014", "about": "(The University of Chicago, 2011)", "biological_target": "T1, HTH-type transcriptional regulator MgrA (Staphylococcus aureus, UniProt P0C1S0)", "T1 sequence (P0C1S0 whole entry)": "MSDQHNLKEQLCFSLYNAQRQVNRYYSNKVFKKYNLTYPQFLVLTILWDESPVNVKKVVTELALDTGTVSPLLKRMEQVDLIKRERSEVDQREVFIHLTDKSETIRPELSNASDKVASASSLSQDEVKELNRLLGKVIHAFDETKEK", "assay": "Biochemical Assay", "settings": "pH 7.4", "protocol": "A fluorescence anisotropy (FA)-based biochemical assay that monitors MgrA-DNA binding. To determine the binding affinity of MgrA to the labeled DNA, different amounts of MgrA were added into the 96-well format plate.", "data": [{"smiles": "Cc1ccc(C)n1[C@@H](CC(=O)O)c1ccc2c(c1)OCO2", "note": "[MgrA inhibitor, 2]", "values": [{"measurement": "IC50", "value": 30, "unit": "µM"}]}]}
